Structures can show the parent of a compound that is named as a salt.
Tests used:
[1] = solubility of local anesthetic in ketorolac solution; format: physicochemical; conditions: 15% ketorolac, not re-dispersed by heating or adjusting the pH
[2] = solubility in water at different pH
[3] = degradation of ketorolac in solution; format: physicochemical; conditions: 1-keto analog proportional to amount of ketorolac and available oxygen
Text: The amount of 1-keto analog produced is generally proportional to the amount of ketorolac in solution and available oxygen (e.g., in the head space of the container, such as those described in U.S. patent application Ser. No. 12/404,250, filed on Mar. 13, 2009, entitled, “Device for Intranasal Administration,”).

## CCOC(=O)c1ccc(N)cc1 [benzocaine]
[1]; 6% benzocaine solution
  precipitation in the presence of ketorolac: precipitation was observed
[1]; 10% benzocaine solution
  precipitation in the presence of ketorolac: precipitation was observed
[2]; low pH
  solubility: soluble
[2]; physiological pH ranges of 4.5 to 7.2
  solubility in water: low solubility

## O=C(c1ccccc1)c1ccc2n1CCC2C(=O)O (stereo not shown) [ketorolac, 5-benzoyl-2,3-dihydro-1H-pyrrolizine-1-carboxylic acid]
[3]
  stability in solution (degradation products): produces several degradation products

## CCOC(=O)c1ccc(N)cc1 [benzocaine hydrochloride]
[2]
  pH of the solution in water: about 1.5
[2]; water, pH not adjusted
  solubility in water: soluble in water
